# Assay results: patent publication US20250064941A1, “SIGLEC LIGANDS, CONJUGATES, AND METHODS OF USE THEREOF” (Osprey Biopharmaceuticals, Inc., priority 2023, published 2025)
# pKd: −log10 of the molar value.
# Tests used:
# [1] = molecular target: T1, mouse Siglec-2-Fc-Avi (CD22) (Mus musculus, UniProt P35329); assay: SPR binding affinity to mouse CD22; details: steady-state analysis
# T1 construct: made in house
# T1 sequence (P35329 22-708 limits assumed): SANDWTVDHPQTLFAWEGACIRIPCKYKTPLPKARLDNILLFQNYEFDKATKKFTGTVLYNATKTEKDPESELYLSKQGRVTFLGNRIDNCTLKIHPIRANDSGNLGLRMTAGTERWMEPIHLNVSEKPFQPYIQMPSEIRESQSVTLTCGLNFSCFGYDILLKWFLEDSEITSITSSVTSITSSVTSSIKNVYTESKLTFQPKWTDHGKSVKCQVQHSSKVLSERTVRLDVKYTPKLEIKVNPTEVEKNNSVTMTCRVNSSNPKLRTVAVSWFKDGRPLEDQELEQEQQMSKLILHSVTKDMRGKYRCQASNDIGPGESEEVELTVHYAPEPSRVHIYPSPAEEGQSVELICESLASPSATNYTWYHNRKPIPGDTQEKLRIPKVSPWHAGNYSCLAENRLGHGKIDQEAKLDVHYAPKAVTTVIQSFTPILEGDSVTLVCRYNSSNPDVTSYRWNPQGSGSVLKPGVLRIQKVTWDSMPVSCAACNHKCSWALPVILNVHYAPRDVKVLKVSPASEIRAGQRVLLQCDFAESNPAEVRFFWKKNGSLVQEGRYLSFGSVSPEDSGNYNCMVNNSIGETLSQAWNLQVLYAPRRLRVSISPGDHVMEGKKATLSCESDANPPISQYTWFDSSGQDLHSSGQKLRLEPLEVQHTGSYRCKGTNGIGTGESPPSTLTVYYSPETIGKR
# Method in brief: (§1)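 Biotinylated CD22 desialylated with SialoExo (4 h, 37° C) before capture on streptavidin chip. Running buffer 10 mM HEPES, 150 mM NaCl, 0.05% Tween-20, pH 7.5, 1% DMSO, with DMSO solvent correction; 120 s dissociation. Compound affinities from steady-state analysis.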
# cynomolgus Siglec-2/CD22 = cynomolgus Siglec-2/CD22 (Macaca fascicularis, UniProt A0A2K5WCZ6); assay: biochemical; assay type: binding; details: SPR, steady-state analysis; read-out: Affinity cyno CD22
# Method in brief: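 Compound binding measured by steady-state SPR analysis, 120 s dissociation, in HEPES-NaCl-Tween buffer pH 7.5 containing 1% DMSO, DMSO solvent-corrected. Surface: cyno CD22, sialic acids first stripped by SialoExo for 4 h at 37° C., then amine-coupled onto CM5.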
# [2] = molecular target: T2, human Siglec-2/CD22 protein (Homo sapiens, UniProt P20273); assay: SPR binding affinity to human CD22; details: steady-state analysis
# T2 construct: purchased Acro Biosystems SI2-H82E3
# T2 sequence (P20273 20-847): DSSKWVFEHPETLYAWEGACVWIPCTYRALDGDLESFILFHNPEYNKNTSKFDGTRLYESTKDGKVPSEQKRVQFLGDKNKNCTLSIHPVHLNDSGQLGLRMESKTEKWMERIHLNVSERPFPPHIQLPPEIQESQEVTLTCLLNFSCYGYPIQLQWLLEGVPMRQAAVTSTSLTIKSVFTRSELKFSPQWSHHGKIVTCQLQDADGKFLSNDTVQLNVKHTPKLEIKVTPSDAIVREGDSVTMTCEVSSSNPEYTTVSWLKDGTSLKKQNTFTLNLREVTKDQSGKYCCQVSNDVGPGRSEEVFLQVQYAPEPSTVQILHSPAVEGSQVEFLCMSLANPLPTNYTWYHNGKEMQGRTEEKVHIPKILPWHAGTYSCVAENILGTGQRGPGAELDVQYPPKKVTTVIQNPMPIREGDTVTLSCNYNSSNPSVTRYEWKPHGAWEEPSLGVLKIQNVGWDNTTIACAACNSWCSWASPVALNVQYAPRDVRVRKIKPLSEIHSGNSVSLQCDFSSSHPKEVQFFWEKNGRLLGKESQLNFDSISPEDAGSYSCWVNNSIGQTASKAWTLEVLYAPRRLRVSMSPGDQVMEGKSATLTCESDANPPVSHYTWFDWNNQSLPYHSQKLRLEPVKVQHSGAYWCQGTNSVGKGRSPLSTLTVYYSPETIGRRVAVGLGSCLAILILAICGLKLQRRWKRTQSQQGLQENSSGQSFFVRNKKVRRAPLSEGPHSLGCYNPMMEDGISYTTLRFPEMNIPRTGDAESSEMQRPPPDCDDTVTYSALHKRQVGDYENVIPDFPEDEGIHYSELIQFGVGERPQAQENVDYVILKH
# Method in brief: as §1
# cynomolgus Siglec-2/CD22, sequence (A0A2K5WCZ6 entry or part of it): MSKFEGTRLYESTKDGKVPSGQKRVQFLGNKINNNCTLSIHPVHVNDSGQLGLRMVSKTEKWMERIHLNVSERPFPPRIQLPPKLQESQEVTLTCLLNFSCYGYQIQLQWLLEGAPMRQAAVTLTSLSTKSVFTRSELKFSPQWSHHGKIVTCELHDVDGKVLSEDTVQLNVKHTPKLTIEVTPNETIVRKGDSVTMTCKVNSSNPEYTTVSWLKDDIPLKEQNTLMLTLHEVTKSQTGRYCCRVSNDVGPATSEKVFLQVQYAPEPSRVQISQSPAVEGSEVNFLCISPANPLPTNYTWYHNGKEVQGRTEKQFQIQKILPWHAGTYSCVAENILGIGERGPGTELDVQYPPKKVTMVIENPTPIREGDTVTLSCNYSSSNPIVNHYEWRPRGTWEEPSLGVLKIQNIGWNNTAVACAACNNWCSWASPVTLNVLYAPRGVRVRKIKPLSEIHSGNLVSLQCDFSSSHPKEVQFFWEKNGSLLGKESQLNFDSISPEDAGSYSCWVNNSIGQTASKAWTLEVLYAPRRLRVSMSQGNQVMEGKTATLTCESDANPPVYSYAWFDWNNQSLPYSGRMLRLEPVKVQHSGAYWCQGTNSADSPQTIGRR
Compound,pKd [1],pKd (cynomolgus Siglec-2/CD22),pKd [2]
"C#CCOc1cccc(-c2cn([C@]3(C(=O)O)C[C@H](O)[C@@H](NC(=O)CO)[C@H]([C@H](O)[C@H](O)CNC(=O)Cc4ccc(-c5ccc(O)cc5)cc4)O3)nn2)c1 [Compound 60, (2R,4S,5R,6R)-6-((1R,2R)-1,2-dihydroxy-3-(2-(4′-hydroxy-[1,1′-biphenyl]-4-yl)acetamido)propyl)-4-hydroxy-5-(2-hydroxyacetamido)-2-(4-(3-(prop-2-yn-1-yloxy)phenyl)-1H-1,2,3-triazol-1-yl)tetrahydro-2H-pyran-2-carboxylic acid]",5.00 to 6.00,5.00 to 6.00,5.00 to 6.00
"C#CCOCCOCCO[C@]1(C(=O)O)C[C@H](O)[C@@H](NC(=O)CO)[C@H]([C@H](O)[C@H](O)CNC(=O)Cc2cc(O)cc(Cl)c2)O1 [Compound 129, (2R,4S,5R,6R)-6-((1R,2R)-3-(2-(3-chloro-5-hydroxyphenyl)acetamido)-1,2-dihydroxypropyl)-4-hydroxy-5-(2-hydroxyacetamido)-2-(2-(2-(prop-2-yn-1-yloxy)ethoxy)ethoxy)tetrahydro-2H-pyran-2-carboxylic acid]",5.00 to 6.00,> 6.00,> 6.00
"C#CCOCCCCCCO[C@]1(C(=O)O)C[C@H](O)[C@@H](NC(=O)CO)[C@H]([C@H](O)[C@H](O)CNC(=O)Cc2ccc(C(F)(F)F)cc2)O1 [Compound 158, (2R,4S,5R,6R)-6-((1R,2R)-1,2-dihydroxy-3-(2-(4-(trifluoromethyl)phenyl)acetamido)propyl)-4-hydroxy-5-(2-hydroxyacetamido)-2-((6-(prop-2-yn-1-yloxy)hexyl)oxy)tetrahydro-2H-pyran-2-carboxylic acid]",5.00 to 6.00,5.00 to 6.00,> 6.00
"C#CCOCCOCCO[C@]1(C(=O)O)C[C@H](O)[C@@H](NC(=O)CO)[C@H]([C@H](O)[C@H](O)CNC(=O)Cc2ccc(Cl)c(O)c2)O1 [Compound 134, (2R,4S,5R,6R)-6-((1R,2R)-3-(2-(4-chloro-3-hydroxyphenyl)acetamido)-1,2-dihydroxypropyl)-4-hydroxy-5-(2-hydroxyacetamido)-2-(2-(2-(prop-2-yn-1-yloxy)ethoxy)ethoxy)tetrahydro-2H-pyran-2-carboxylic acid]",5.00 to 6.00,> 6.00,> 6.00

# Next, values leading:
pKd [1],pKd (cynomolgus Siglec-2/CD22),pKd [2],Compound
> 6.00,> 6.00,> 6.00,C#CCOCCCCCCO[C@]1(C(=O)O)C[C@H](O)[C@@H](NC(=O)CNC)[C@H]([C@H](O)[C@H](O)CNC(=O)Cc2ccc(Cl)cc2)O1 [Compound 211]
> 6.00,> 6.00,> 6.00,"C#CCOCCNC(=O)NCCCCCCO[C@]1(C(=O)O)C[C@H](O)[C@@H](NC(=O)CO)[C@H]([C@H](O)[C@H](O)CNC(=O)Cc2ccc(Cl)cc2)O1 [Compound 218, (2R,4S,5R,6R)-6-((1R,2R)-3-(2-(4-chlorophenyl)acetamido)-1,2-dihydroxypropyl)-4-hydroxy-5-(2-hydroxyacetamido)-2-((6-(3-(2-(prop-2-yn-1-yloxy)ethyl)ureido)hexyl)oxy)tetrahydro-2H-pyran-2-carboxylic acid]"
> 6.00,> 6.00,5.00 to 6.00,"C#CCOCCCCCCO[C@]1(C(=O)O)C[C@H](O)[C@@H](NC(=O)C(O)CO)[C@H]([C@H](O)[C@H](O)CNC(=O)Cc2ccc(Cl)cc2)O1 (stereo partly drawn) [Compound 210, (2R,4S,5R,6R)-6-((1R,2R)-3-(2-(4-chlorophenyl)acetamido)-1,2-dihydroxypropyl)-5-(2,3-dihydroxypropanamido)-4-hydroxy-2-((6-(prop-2-yn-1-yloxy)hexyl)oxy)tetrahydro-2H-pyran-2-carboxylic acid]"
> 6.00,> 6.00,> 6.00,"C#CCOCCCCCCS[C@]1(C(=O)O)C[C@H](O)[C@@H](NC(=O)CO)[C@H]([C@H](O)[C@H](O)CNC(=O)Cc2ccc(Cl)cc2)O1 [Compound 186, (2S,4S,5R,6R)-6-((1R,2R)-3-(2-(4-chlorophenyl)acetamido)-1,2-dihydroxypropyl)-4-hydroxy-5-(2-hydroxyacetamido)-2-((6-(prop-2-yn-1-yloxy)hexyl)thio)tetrahydro-2H-pyran-2-carboxylic acid]"
